Legend:
[1] = test system: Normal human fibroblasts (IMR90); test: Compound toxicity towards normal proliferative, senescent or quiescent fibroblasts (XTT cell viability assay); assay type: cell-based; conditions: IC50 against normal, proliferating cells divided by IC50 versus senescent (doxorubicin-induced) cells, three days treatment
Description: Normal human fibroblasts (IMR90) and patient-derived β-galactosidase (GLB1) or α-fucosidase (FUCA1) deficient cells were used to determine change in cell viability after exposure to compound. Cells were cultured with DMEM and 10% heat inactivated FBS under a controlled atmosphere of 5% carbon dioxide and 5% oxygen, […] and confirmed by the absence of senescence associated β-galactosidase (SA-β-Gal) staining and the capacity to re-enter the cell cycle. Senescence was induced by treatment with doxorubicin and confirmed by SA-β-Gal positive staining and the lack of DNA replication. Cells were treated with compound for three days. Cell viability was determined by mitochondrial dehydrogenase activity (XTT assay. Cayman Chemical) at ten concentrations of the tested compound. To generate dose-response curves, data was fitted to a four-parameter Hill function and the IC50 was determined at Y=0.5 viability. The senolytic index (S.I.) for each compound was determined by dividing the IC50 against normal, proliferating cells by the IC50 versus senescent cells. Senolytic index data is shown in Table 1 with compounds having S.I.<1 (−), S.I>1 (+), S.I.>5 (++) and S.I>10 (+++).

[2] = test system: Mouse embryonic fibroblast cells (MEFs); test: Viability of proliferating or senescent mouse embryonic fibroblasts (DAPI/PI staining); assay type: cell-based; conditions: 4 days
Description: Mouse embryonic fibroblast cells were incubated with 300 nM doxorubicin for 24 hrs to induce senescence. Cells were washed and after incubation in media for 7 days, senescence was confirmed by staining for SA-β-Gal (Itahana et al., Methods Mol. Biol. 371 (2007) 21-31) and lack of incorporation of 5-ethynyl-2′-deoxyuridine (EdU) (see Yu et al., J. Immunol. Methods 350 (2009) 29-35).
Proliferating or senescent MEFs were treated with increasing concentrations of either FURGal (101) or 5-fluorouridine (FUR) (102) for 4 days. Cells were washed and stained with 4′,6-diamidino-2-phenylindole (DAPI) and propidium iodide (PI) and the fraction of viable cells was assessed from the ratio of PI-positive nuclei over PI-negative nuclei.

SMILES: Cc1[nH]c2ccccc2c1CCNCc1ccc(/C=C/C(=O)NO[C@@H]2O[C@H](CO)[C@H](O)[C@H](O)[C@H]2O)cc1 [(26), (E)-3-(4-(((2-(2-Methyl-1H-indol-3-yl)ethyl)amino)methyl)phenyl)-N-(((2S,3R,4S,5R,6R)-3,4,5-trihydroxy-6-(hydroxymethyl)tetrahydro-2H-pyran-2-yl)oxy)acrylamide]
- Senolytic Index (S.I.) [1]: ++ (S.I.>5 (++))

SMILES: CC(C)c1cc(-c2n[nH]c(=O)n2-c2ccc3c(ccn3C)c2)c(O[C@@H]2O[C@H](CO)[C@H](O)[C@H](O)[C@H]2O)cc1O (single isomer, unassigned) [(128)]
- Senolytic Index (S.I.) [1]: − (S.I.<1 (−))

SMILES: CC(C)c1cc(-c2n[nH]c(=O)n2-c2ccc3c(ccn3C)c2)c(O)cc1O[C@@H]1O[C@H](CO)[C@H](O)[C@H](O)[C@H]1O (single isomer, unassigned) [(127)]
- Senolytic Index (S.I.) [1]: + (S.I>1 (+))

SMILES: CC(C)c1cc(C(=O)N2Cc3ccc(CN4CCN(C)CC4)cc3C2)c(O[C@@H]2O[C@H](CO)[C@H](O)[C@H](O)[C@H]2O)cc1O [(47)]
- Senolytic Index (S.I.) [1]: − (S.I.<1 (−))

SMILES: CC(=O)O[C@H]1[C@H](OC(C)=O)[C@H](ONC(=O)c2cnc(N3CCC(CNCc4cn(C)c5ccccc45)CC3)nc2)O[C@@H](C)[C@H]1OC(C)=O [Compound (115), (2S,3R,4R,5S,6S)-2-Methyl-6-((2-(4-((((1-methyl-1H-indol-3-yl)methyl)amino)methyl)piperidin-1-yl)pyrimidine-5-carboxamido)oxy)tetrahydro-2H-pyran-3,4,5-triyl Triacetate]
- Senolytic Index (S.I.) [1]: +++ (S.I>10 (+++))

SMILES: Cc1[nH]c2ccccc2c1CCNCc1ccc(/C=C/C(=O)NO[C@@H]2O[C@@H](C)[C@@H](OC(=O)C(C)C)[C@@H](OC(=O)C(C)C)[C@@H]2OC(=O)C(C)C)cc1 [(122), (2S,3R,4R,5S,6S)-2-Methyl-6-(((E)-3-(4-(((2-(2-methyl-1H-indol-3-yl)ethyl)amino)methyl)phenyl)acrylamido)oxy)tetrahydro-2H-pyran-3,4,5-triyl tris(2-methylpropanoate)]
- Senolytic Index (S.I.) [1]: + (S.I>1 (+))

SMILES: COc1ccc(-c2nc(N3CCOCC3)c3sc(CN(C)c4ncc(C(=O)NO[C@@H]5O[C@@H](C)[C@@H](O)[C@@H](O)[C@@H]5O)cn4)cc3n2)cn1 [(126), 2-(((2-(6-methoxypyridin-3-yl)-4-morpholinothieno[3,2-d]pyrimidin-6-yl)methyl)(methyl)amino)-N-(((2S,3S,4R,5S,6S)-3,4,5-trihydroxy-6-methyltetrahydro-2H-pyran-2-yl)oxy)pyrimidine-5-carboxamide]
- Senolytic Index (S.I.) [1]: − (S.I.<1 (−))

SMILES: COc1ccc(-c2nc(N3CCOCC3)c3sc(CN(C)c4ncc(C(=O)NO[C@@H]5O[C@H](COC(C)=O)[C@H](OC(C)=O)[C@H](OC(C)=O)[C@H]5OC(C)=O)cn4)cc3n2)cn1 [(123), (2R,3S,4S,5R,6S)-2-(Acetoxymethyl)-6-((2-(((2-(6-methoxypyridin-3-yl)-4-morpholinothieno[3,2-d]pyrimidin-6-yl)methyl)(methyl)amino)pyrimidine-5-carboxamido)oxy)tetrahydro-2H-pyran-3,4,5-triyl Triacetate]
- Senolytic Index (S.I.) [1]: + (S.I>1 (+))

SMILES: COc1ccc(-c2nc(N3CCOCC3)c3sc(CN(C)c4ncc(C(=O)NO[C@@H]5O[C@H](CO)[C@H](O)[C@H](O)[C@H]5O)cn4)cc3n2)cn1 [(124), 2-(((2-(6-Methoxypyridin-3-yl)-4-morpholinothieno[3,2-d]pyrimidin-6-yl)methyl)(methyl)amino)-N-(((2S,3R,4S,5R,6R)-3,4,5-trihydroxy-6-(hydroxymethyl)tetrahydro-2H-pyran-2-yl)oxy)pyrimidine-5-carboxamide]
- Senolytic Index (S.I.) [1]: − (S.I.<1 (−))

SMILES: C[C@@H]1O[C@@H](ONC(=O)c2cnc(N3CCC(CNCc4cn(C)c5ccccc45)CC3)nc2)[C@@H](O)[C@H](O)[C@@H]1O [(120), 2-(4-((((l-Methyl-1H-indol-3-yl)methyl)amino)methyl)piperidin-1-yl)-N-(((2S,3S,4R,5S,6S)-3,4,5-trihydroxy-6-methyltetrahydro-2H-pyran-2-yl)oxy)pyrimidine-5-carboxamide]
- Senolytic Index (S.I.) [1]: + (S.I>1 (+))

SMILES: CCC(=O)O[C@H]1[C@H](OC(=O)CC)[C@H](ONC(=O)/C=C/c2ccc(CNCCc3c(C)[nH]c4ccccc34)cc2)O[C@@H](C)[C@H]1OC(=O)CC [(121), (2S,3R,4R,5S,6S)-2-Methyl-6-(((E)-3-(4-(((2-(2-methyl-1H-indol-3-yl)ethyl)amino)methyl)phenyl)acrylamido)oxy)tetrahydro-2H-pyran-3,4,5-triyl Tripropionate]
- Senolytic Index (S.I.) [1]: +++ (S.I>10 (+++))

SMILES: CCNC(=O)c1noc(-c2cc(C(C)C)c(O[C@@H]3O[C@H](CO)[C@H](O)[C@H](O)[C@H]3O)cc2O)c1-c1ccc(CN2CCOCC2)cc1 (single isomer, unassigned) [(48)]
- Senolytic Index (S.I.) [1]: + (S.I>1 (+))

SMILES: COc1ccc(-c2nc(N3CCOCC3)c3sc(CN(C)c4ncc(C(=O)NO[C@@H]5O[C@@H](C)[C@@H](OC(C)=O)[C@@H](OC(C)=O)[C@@H]5OC(C)=O)cn4)cc3n2)cn1 [(125), (2S,3S,4R,5R,6S)-2-((2-(((2-(6-Methoxypyridin-3-yl)-4-morpholinothieno[3,2-d]pyrimidin-6-yl)methyl)(methyl)amino)pyrimidine-5-carboxamido)oxy)-6-methyltetrahydro-2H-pyran-3,4,5-triyl Triacetate]
- Senolytic Index (S.I.) [1]: ++ (S.I.>5 (++))

SMILES: CC(C)c1cc(C(=O)N2Cc3ccc(CN4CCN(C)CC4)cc3C2)c(O)cc1O[C@@H]1O[C@H](CO)[C@H](O)[C@H](O)[C@H]1O (single isomer, unassigned) [(46)]
- Senolytic Index (S.I.) [1]: − (S.I.<1 (−))

SMILES: Cc1[nH]c2ccccc2c1CCNCc1ccc(/C=C/C(=O)NO[C@@H]2O[C@@H](C)[C@@H](O)[C@@H](O)[C@@H]2O)cc1 [(35), (E)-3-(4-(((2-(2-Methyl-1H-indol-3-yl)ethyl)amino)methyl)phenyl)-N-(((2S,3S,4R,5S,6S)-3,4,5-trihydroxy-6-methyltetrahydro-2H-pyran-2-yl)oxy)acrylamide]
- Senolytic Index (S.I.) [1]: + (S.I>1 (+))

SMILES: Cn1cc(CNCC2CCN(c3ncc(C(=O)NO[C@@H]4O[C@H](CO)[C@H](O)[C@H](O)[C@H]4O)cn3)CC2)c2ccccc21 [(112), 2-(4-((((1-methyl-1H-indol-3-yl)methyl)amino)methyl)piperidin-1-yl)-N-(((2S,3R,4S,5R,6R)-3,4,5-trihydroxy-6-(hydroxymethyl)tetrahydro-2H-pyran-2-yl)oxy)pyrimidine-5-carboxamide]
- Senolytic Index (S.I.) [1]: + (S.I>1 (+))

SMILES: CCNC(=O)c1noc(-c2cc(C(C)C)c(O)cc2O[C@@H]2O[C@H](CO)[C@H](O)[C@H](O)[C@H]2O)c1-c1ccc(CN2CCOCC2)cc1 (single isomer, unassigned) [(49)]
- Senolytic Index (S.I.) [1]: + (S.I>1 (+))

SMILES: CC(=O)OC[C@H]1O[C@@H](ONC(=O)c2cnc(N3CCC(CNCc4cn(C)c5ccccc45)CC3)nc2)[C@H](OC(C)=O)[C@@H](OC(C)=O)[C@H]1OC(C)=O [(114), (2R,3S,4S,5R,6S)-2-(Acetoxymethyl)-6-((2-(4-((((1-methyl-1H-indol-3-yl)methyl)amino)methyl)piperidin-1-yl)pyrimidine-5-carboxamido)oxy)tetrahydro-2H-pyran-3,4,5-triyl Triacetate]
- Senolytic Index (S.I.) [1]: + (S.I>1 (+))

SMILES: O=c1[nH]c(=O)n([C@@H]2O[C@H](CO)[C@@H](O)[C@H]2O)cc1F [(102), 5-fluorouridine, reference compound]
- toxicity towards senescent MEFs ([2]; doxorubicin-induced senescent MEFs, FIG. 1B): equitoxic
- cell viability / toxicity towards proliferating cells ([2]; proliferating MEFs, increasing concentrations (as high as 4 mM), FIG. 1A): dramatically reduces cell viability
